Assay results taken from publication PMC7368294 (Proceedings of the National Academy of Sciences of the …, 2020).

How the values were obtained:
Test in all cases: cell-based
Parameters in all cases: species or system Xenopus laevis oocytes
[1] = biological target: Amα1/Amα2/Amα8/Amβ1 nAChR (Apis mellifera, UniProt A0A7M7MMZ9+A0A8U0WQ70+A0A8U0WQC0+A0A8U0WQD1)
[2] = biological target: Btα1/Btα2/Btα8/Btβ1 nAChR (Bombus terrestris, UniProt A0A9B0BGM1+A0A9B0F4H3+A0A9B2JDZ7+A0A9B2JMX7)
Amα1/Amα8/Amβ1 nAChR = biological target: T1, Amα1/Amα8/Amβ1 nAChR (Apis mellifera, UniProt A0A7M7MMZ9+A0A8U0WQ70+A0A8U0WQC0)
T1 sequence (A0A7M7MMZ9 44-627): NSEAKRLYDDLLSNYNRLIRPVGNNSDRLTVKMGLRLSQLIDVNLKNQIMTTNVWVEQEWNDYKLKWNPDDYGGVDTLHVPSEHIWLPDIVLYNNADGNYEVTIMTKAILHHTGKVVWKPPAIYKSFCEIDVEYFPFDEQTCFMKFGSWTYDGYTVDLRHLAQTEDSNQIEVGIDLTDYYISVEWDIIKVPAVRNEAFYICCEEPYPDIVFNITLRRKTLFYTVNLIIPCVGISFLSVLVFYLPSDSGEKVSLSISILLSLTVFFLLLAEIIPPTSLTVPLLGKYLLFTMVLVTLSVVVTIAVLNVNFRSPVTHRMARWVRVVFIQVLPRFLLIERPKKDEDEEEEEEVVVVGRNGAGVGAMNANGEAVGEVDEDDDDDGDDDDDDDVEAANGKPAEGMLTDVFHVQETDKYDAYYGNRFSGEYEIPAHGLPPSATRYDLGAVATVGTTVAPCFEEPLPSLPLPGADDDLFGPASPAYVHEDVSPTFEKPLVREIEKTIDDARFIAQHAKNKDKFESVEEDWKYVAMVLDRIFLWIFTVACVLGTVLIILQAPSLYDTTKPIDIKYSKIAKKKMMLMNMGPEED
T1 sequence (A0A8U0WQ70 25-537): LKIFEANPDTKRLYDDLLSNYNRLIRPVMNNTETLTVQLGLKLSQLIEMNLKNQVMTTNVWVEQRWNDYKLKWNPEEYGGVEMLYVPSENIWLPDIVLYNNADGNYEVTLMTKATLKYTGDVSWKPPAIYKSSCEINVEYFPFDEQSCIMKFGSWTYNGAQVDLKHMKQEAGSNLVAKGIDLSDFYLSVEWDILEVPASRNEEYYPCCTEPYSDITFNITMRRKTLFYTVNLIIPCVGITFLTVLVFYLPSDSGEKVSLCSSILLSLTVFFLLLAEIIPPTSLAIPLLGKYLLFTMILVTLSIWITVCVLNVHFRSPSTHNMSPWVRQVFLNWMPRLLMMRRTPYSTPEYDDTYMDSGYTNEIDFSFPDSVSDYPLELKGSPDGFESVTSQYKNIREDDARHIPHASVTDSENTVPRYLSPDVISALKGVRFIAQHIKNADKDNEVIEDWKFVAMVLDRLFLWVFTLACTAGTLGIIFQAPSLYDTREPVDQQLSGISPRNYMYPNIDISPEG
T1 sequence (A0A8U0WQC0 25-520): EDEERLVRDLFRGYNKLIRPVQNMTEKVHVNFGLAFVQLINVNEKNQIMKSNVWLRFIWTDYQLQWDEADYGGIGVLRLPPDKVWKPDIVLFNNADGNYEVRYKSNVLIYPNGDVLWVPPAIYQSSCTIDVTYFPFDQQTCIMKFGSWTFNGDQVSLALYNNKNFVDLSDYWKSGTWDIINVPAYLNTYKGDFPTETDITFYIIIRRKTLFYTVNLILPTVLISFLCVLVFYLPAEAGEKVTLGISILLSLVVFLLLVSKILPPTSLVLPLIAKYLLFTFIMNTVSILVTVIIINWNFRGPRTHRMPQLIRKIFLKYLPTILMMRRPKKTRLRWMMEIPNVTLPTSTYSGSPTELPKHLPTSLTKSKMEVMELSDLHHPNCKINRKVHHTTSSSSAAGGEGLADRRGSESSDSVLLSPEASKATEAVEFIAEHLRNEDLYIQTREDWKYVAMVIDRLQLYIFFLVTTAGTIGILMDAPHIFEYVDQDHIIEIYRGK

Btα1/Btα8/Btβ1 nAChR = biological target: T2, Btα1/Btα8/Btβ1 nAChR (Bombus terrestris, UniProt A0A9B0BGM1+A0A9B0F4H3+A0A9B2JDZ7)
T2 sequence (A0A9B0F4H3 44-615): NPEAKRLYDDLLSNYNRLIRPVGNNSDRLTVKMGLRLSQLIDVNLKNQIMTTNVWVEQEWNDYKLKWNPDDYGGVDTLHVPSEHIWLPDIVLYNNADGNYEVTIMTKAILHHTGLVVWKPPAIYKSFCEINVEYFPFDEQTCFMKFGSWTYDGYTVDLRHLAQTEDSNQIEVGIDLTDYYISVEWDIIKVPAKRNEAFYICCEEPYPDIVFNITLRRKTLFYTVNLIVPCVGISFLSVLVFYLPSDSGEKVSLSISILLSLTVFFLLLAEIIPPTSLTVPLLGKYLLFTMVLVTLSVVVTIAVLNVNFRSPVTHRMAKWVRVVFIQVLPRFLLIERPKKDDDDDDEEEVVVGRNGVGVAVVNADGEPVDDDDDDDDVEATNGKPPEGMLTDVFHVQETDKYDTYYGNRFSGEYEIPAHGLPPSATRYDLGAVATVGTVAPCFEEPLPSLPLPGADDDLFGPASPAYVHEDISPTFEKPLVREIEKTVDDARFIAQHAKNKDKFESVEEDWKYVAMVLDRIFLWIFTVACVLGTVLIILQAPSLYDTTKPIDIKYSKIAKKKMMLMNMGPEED
T2 sequence (A0A9B2JDZ7 22-535): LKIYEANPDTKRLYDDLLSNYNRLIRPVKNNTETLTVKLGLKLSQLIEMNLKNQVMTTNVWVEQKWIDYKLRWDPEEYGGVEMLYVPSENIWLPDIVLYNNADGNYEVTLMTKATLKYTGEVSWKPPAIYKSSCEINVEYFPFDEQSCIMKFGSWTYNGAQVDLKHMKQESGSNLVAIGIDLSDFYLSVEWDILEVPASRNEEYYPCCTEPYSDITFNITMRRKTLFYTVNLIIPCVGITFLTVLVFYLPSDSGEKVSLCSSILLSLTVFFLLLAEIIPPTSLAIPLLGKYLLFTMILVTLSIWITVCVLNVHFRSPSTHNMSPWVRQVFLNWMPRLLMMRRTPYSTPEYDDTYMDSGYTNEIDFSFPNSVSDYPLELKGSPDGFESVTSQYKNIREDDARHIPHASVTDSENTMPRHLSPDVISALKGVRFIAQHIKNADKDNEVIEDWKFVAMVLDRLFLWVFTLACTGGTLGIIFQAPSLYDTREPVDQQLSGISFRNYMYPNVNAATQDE
T2 sequence (A0A9B0BGM1 19-519): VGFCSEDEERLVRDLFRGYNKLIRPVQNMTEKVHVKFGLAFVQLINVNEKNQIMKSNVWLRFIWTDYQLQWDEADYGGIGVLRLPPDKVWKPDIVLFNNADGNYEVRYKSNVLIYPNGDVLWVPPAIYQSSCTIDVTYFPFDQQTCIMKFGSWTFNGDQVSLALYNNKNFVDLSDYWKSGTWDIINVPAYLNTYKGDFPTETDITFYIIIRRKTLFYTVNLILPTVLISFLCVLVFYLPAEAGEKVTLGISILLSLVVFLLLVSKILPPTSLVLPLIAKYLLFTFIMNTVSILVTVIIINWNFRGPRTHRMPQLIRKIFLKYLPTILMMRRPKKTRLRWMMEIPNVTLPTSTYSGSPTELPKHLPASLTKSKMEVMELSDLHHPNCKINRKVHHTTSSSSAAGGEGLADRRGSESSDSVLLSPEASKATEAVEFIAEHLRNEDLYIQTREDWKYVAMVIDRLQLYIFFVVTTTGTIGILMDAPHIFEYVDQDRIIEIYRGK

Amα1/Amα2/Amα8/Amβ1 nAChR, sequence (A0A8U0WQD1 18-541, one chain of several): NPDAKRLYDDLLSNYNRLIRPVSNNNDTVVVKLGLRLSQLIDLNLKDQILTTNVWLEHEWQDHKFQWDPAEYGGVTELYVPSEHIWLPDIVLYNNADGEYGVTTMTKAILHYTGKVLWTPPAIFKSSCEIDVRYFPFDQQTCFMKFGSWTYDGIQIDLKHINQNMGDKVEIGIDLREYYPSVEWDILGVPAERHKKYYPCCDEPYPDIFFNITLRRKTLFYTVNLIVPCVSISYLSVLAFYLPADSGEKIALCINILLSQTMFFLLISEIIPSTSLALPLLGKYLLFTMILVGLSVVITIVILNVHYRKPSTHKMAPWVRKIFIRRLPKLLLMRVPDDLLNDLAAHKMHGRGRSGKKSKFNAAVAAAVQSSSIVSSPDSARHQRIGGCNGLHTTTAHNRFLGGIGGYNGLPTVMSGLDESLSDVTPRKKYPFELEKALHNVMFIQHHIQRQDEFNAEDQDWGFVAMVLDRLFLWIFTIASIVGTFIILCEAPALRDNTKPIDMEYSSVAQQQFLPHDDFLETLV
Btα1/Btα2/Btα8/Btβ1 nAChR, sequence (A0A9B2JMX7 18-544, one chain of several): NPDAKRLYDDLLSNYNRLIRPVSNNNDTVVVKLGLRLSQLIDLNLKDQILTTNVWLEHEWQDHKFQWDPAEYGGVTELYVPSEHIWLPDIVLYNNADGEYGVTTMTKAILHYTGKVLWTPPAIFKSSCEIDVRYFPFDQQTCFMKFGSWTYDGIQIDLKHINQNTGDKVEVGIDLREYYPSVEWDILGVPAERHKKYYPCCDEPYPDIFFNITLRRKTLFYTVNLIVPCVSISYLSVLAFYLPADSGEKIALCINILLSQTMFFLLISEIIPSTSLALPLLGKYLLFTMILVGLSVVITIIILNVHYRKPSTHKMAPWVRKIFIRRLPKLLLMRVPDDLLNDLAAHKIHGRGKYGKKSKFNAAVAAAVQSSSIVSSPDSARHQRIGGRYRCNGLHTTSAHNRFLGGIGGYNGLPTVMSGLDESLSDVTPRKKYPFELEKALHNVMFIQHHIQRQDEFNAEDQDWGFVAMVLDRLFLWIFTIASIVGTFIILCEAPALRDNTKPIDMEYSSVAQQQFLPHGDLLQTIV

EC50 [1]: 1.91 µM | EC50 [2]: 2.19 µM | EC50 (Amα1/Amα8/Amβ1 nAChR): 1.15 µM | EC50 (Btα1/Btα8/Btβ1 nAChR): 1.58 µM
SMILES: CC(=O)OCC[N+](C)(C)C [Acetylcholine]
